One experiment has as its target BCL6 BTB domain (Homo sapiens (Human), UniProt P41182). The experiment can be described thus: Surface plasmon resonance (SPR) assay. It is filed as binding. Particulars: BCL6 BTB domain captured on SA chip, single cycle kinetics. (Surface plasmon resonance follows binding to a sensor surface in real time, without labels.)
Experiment [1] concerns BCL6 reporter construct (3xBCL6-TK-Luc) in SuDHL4 cells. The experiment in a line: Cell-based luciferase assay. Particulars: Homo sapiens, SU-DHL-4, 48 h, read-out: Luciferase-Assay EC50, uM), SuDHL4-3xBCL6-TK-Luc cells, two days, high dose 10 uM. The procedure, abridged: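 SuDHL4 cells stably carrying a 3×BCL6-site TK-promoter firefly luciferase reporter, seeded at 15,000 cells/well, were dosed over a 10-point range (top 10 uM) and grown two days at 37 °C, 5% CO2. Luminescence then read after adding neolite reagent at room temperature.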

The next experiment concerns Karpas422 cells. The experiment can be described thus: Tumor cell growth inhibition assay. As to conditions: Homo sapiens, KARPAS-422, 144 h, read-out: Tumor Growth Inhibition in Karpas-422 (IC50, uM), Karpas422 cells, six days, ATPlite. It is filed as cell-based. Put shortly: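 Karpas422 cells (2,000/well) in Alpha-MEM with 10% FBS dosed across 10 concentrations (top 5 uM) and grown six days at 37° C., 5% CO2. Viability read as ATPlite luminescence.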

As a reminder, the Kd is a measure of binding affinity in units of concentration. A lower Kd goes with a tighter complex. As usually defined, the EC50 is the concentration at which the effect is half-maximal. In general, IC50 refers to the concentration at which inhibition is half-maximal. `C[C@H]1CNCCN1c1cc(NC(=O)Cn2cc(-c3cc(C(N)=O)c(O)c(F)c3F)c3c(=O)n(C)cnc32)c(Cl)cn1` [Compound I-335] showed a dissociation constant Kd at BCL6 BTB domain of 24.6 nM. For the same compound, the EC50 in experiment [1] came to 6.92 µM. For the same compound, in the experiment on Karpas422 cells, the IC50 is 5.1 µM.
The like results for `Cc1nc2c(c(-c3cc(F)c(O)c(C(N)=O)c3)cn2CC(=O)Nc2cc(N3CC4CCC(C3)O4)ncc2Cl)c(=O)n1C` [Compound I-199] were, in that order, 8.18 nM, 0.117 µM and 0.0909 µM.
For `CO[C@@H]1CN(c2cc(NC(=O)Cn3cc(-c4cc(Cl)c(O)c(C(N)=O)c4)c4c(=O)n(C)c(C(F)(F)F)nc43)c(Cl)c(F)n2)C[C@@H]1F` [Compound I-388], on BCL6 BTB domain, binding was characterised by a dissociation constant (Kd) of 528 nM. The EC50 in experiment [1] was found to be 1.51 µM. Also, the IC50 in the experiment on Karpas422 cells was 0.394 µM.
The like results for `Cc1nc2c(s1)CN(c1cc(NC(=O)Cn3cc(-c4cc(Cl)c(O)c(C(N)=O)c4)c4c(=O)n(C)cnc43)c(Cl)cn1)C2` [Compound I-108] were, in that order, 30 nM, 0.203 µM and 0.408 µM.
For the compound `CO[C@H]1CN(c2cc(NC(=O)Cn3cc(-c4cc(Cl)c(O)c(C(N)=O)c4)c4c(=O)n(C)c(C)nc43)c(Cl)cn2)C[C@H]1F` [Compound I-401], at BCL6 BTB domain, the affinity, expressed as Kd, was 28.9 nM. For the same compound, the EC50 in experiment [1] came to 0.427 µM. Besides, in the experiment on Karpas422 cells, the IC50 came out at 1.22 µM.
The like results for `Cn1cnc2c(c(-c3cc(Cl)c(O)c(C(N)=O)c3)cn2CC(=O)Nc2nc(N3CCOCC3)c(F)cc2Cl)c1=O` [Compound I-328] were, in that order, 239 nM, 3.76 µM and 2.66 µM.
For the compound `CN1CC2(CCN(c3cc(NC(=O)Cn4cc(-c5cc(C(N)=O)c(O)c(F)c5F)c5c(=O)n(C)cnc54)c(Cl)cn3)C2)C1` [Compound I-483], the Kd at BCL6 BTB domain stood at 128 nM. The EC50 in experiment [1] came to 10 µM. In the experiment on Karpas422 cells, the IC50 was found to be 10 µM.
Take `CCN1CCN(c2cc(NC(=O)Cn3cc(-c4cc(C(N)=O)c(O)c(F)c4F)c4c(=O)n(C)cnc43)c(Cl)c(F)n2)[C@@H](C)C1` [Compound I-426]: at BCL6 BTB domain, the Kd stood at 17.7 nM. For the same compound, the EC50 in experiment [1] worked out at 0.226 µM. Further, the IC50 in the experiment with Karpas422 cells stood at 0.128 µM.
Turning to `C[C@H]1CN(CC2(C(F)(F)F)CC2)CCN1c1cc(NC(=O)Cn2cc(-c3cc(C(N)=O)c(O)c(F)c3F)c3c(=O)n(C)cnc32)c(Cl)cn1` [Compound I-377], the Kd on BCL6 BTB domain stood at 208 nM. Also, the EC50 in experiment [1] amounted to 2.97 µM. In addition, the IC50 in the experiment with Karpas422 cells was 8.61 µM.
At BCL6 BTB domain, `C[C@@H]1CN(c2cc(NC(=O)Cn3cc(-c4cc(C(N)=O)c(O)c(F)c4F)c4c(=O)n(C)cnc43)c(Cl)cn2)C[C@H](C)N1` [Compound I-225] returned a Kd of 115 nM. Also, the half-maximal effective concentration (EC50) in experiment [1] worked out at 20.5 µM. Also, the IC50 with Karpas422 cells is 4.34 µM.
Taken in the same sequence, the figures for `CN1CCOC2CN(c3cc(NC(=O)Cn4cc(-c5cc(C(N)=O)c(O)c(F)c5F)c5c(=O)n(C)cnc54)c(Cl)cn3)CC21` (stereo not drawn) [Compound I-325] were 40.8 nM, 2 µM and 1.13 µM.
The like results for `C[C@H](C1CC1)N1CCN(c2cc(NC(=O)Cn3cc(-c4cc(C(N)=O)c(O)c(F)c4F)c4c(=O)n(C)cnc43)c(Cl)c(F)n2)[C@@H](C)C1` [Compound I-455] were, in that order, 11.2 nM, 0.307 µM and 0.204 µM.
Taken in the same sequence, the figures for `C[C@H]1CN(CCC(F)(F)F)CCN1c1cc(NC(=O)Cn2cc(-c3cc(C(N)=O)c(O)c(F)c3F)c3c(=O)n(C)cnc32)c(Cl)c(F)n1` [Compound I-464] were 83.8 nM, 0.213 µM and 0.421 µM.
The compound `C[C@H]1CN(C2CC2)CCN1c1cc(NC(=O)Cn2cc(-c3cc(Cl)c(O)c(C(N)=O)c3)c3c(=O)n(C)cnc32)c(Cl)cn1` [Compound I-296] returned a Kd on BCL6 BTB domain of 33.4 nM. The EC50 in experiment [1] is 0.271 µM. In addition, the IC50 with Karpas422 cells is 0.209 µM.
The like results for `CN1CC2CCC(C1)N2c1cc(NC(=O)Cn2cc(-c3cc(C(N)=O)c(O)c(F)c3F)c3c(=O)n(C)cnc32)c(Cl)cn1` [Compound I-320] were, in that order, 48.4 nM, 1.15 µM and 0.979 µM.

Values taken from US11518764B2, “Substituted heteroaryls as inhibitors of the BCL6 BTB domain protein-protein interaction” (Ontario Institute for Cancer Research (OICR), priority 2018, dated 2022).
